Article PMC2982748 (Arteriosclerosis, thrombosis, and vascular biology, 2010)

Molecular target: P2Y12 (Homo sapiens, UniProt Q9H244)
Assay: β-arrestin recruitment
Format: cell-based

Chain of P2Y12 (Q9H244 whole entry): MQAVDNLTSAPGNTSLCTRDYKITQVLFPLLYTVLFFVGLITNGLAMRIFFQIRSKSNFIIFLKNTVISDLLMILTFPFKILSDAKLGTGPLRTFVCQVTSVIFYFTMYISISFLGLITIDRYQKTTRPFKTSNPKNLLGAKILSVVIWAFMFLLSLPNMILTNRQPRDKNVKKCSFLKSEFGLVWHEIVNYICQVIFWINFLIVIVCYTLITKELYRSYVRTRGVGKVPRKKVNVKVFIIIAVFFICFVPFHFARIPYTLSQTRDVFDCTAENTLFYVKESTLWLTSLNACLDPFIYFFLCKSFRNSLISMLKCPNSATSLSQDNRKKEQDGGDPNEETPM

Compound	EC50
CCCCC/C=C\C\C=C/C=C/C=C/[C@@H](SC[C@H](N)C(=O)O)[C@@H](O)CCCC(=O)O [LTE4]	1.3e-05 µM
Nc1ncnc2c1ncn2[C@@H]1O[C@H](COP(=O)(O)OP(=O)(O)O)[C@@H](O)[C@H]1O [ADP]	5 µM
